Reference: patent US11008340B2, “Modulators of ROR-gamma” (Vitae Pharmaceuticals, LLC, priority 2015, dated 2021)
Read-outs that look alike come from different tables or passages of the source.

Experiments:
[1] = target: T1, recombinant RORγ Ligand Binding Domain (LBD) protein (Homo sapiens, UniProt P51449); assay: Radio-Ligand RORγ Binding Assay (Assay 1); conditions: radio-ligand competition, 25-hydroxy [26,27-3H]-cholesterol, RORγ LBD; read-out: Avg ROR Bind Ki
T1 construct: 6×His; GST
T1 sequence (P51449 269-508 limits assumed): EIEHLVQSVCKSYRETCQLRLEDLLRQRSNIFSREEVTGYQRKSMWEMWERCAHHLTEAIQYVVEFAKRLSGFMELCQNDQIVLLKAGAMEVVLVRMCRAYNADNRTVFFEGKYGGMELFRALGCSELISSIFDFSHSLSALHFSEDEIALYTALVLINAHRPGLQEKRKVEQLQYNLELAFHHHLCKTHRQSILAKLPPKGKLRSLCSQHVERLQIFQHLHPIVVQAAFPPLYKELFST
Method in brief: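 Cell-free SPA competition between compound and 25-hydroxy[26,27-^3H]-cholesterol for 6×His-GST-tagged RORγ LBD in 50 mM HEPES pH 7.4 with NaCl, MgCl2, glycerol, CHAPS, octylglucoside and DTT. Mix was shaken 20 min, held 10 min at rt, then read after poly-Lys YSi beads. IC50 came from a four-parameter fit, and Ki from radioligand KD.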

[2] = target: T2, full-length RORγt in Jurkat cells (Homo sapiens, UniProt P51449); assay: RORγt 5×RORE Assay in Jurkat Cells (Assay 2); assay type: cell-based; conditions: 5×RORE luciferase reporter
T2 construct: transcriptional activity of the full-length RORγt in Jurkat cells; host or cells: Jurkat cells (ATCC TIB-152)
T2 sequence (P51449 1-497 isoform P51449-2): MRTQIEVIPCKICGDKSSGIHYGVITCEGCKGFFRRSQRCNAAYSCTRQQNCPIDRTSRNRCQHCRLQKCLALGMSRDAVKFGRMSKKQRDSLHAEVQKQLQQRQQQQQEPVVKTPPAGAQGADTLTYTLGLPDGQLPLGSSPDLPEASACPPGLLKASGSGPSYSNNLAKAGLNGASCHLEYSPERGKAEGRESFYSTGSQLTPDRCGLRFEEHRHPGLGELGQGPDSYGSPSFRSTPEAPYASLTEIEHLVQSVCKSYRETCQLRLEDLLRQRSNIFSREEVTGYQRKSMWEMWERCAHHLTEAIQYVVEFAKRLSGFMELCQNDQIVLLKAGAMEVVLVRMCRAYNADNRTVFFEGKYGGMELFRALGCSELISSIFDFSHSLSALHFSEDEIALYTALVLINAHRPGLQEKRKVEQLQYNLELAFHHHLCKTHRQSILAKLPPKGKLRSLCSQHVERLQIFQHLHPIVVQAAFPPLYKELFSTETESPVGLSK
Protocol: [formula] RORγt 5×RORE Assay in Jurkat Cells (Assay 2)
Compounds described herein were tested for RORγ inverse agonist activity in a cell-based, transcriptional activity assay. Secreted Nanoluc″ luciferase was used as a reporter for transcriptional activity of the full-length RORγt in Jurkat cells (ATCC, Cat. #TIB-152). A reporter plasmid was constructed by inserting 5 repeats of the ROR Response Element (RORE) […] (SEQ ID NO: 1) into a commercially available promoterless plasmid pNL1.3[secNluc] (Promega, Cat. #N1021) using KpnI and HindIII restriction sites. The expression plasmid for RORγt was purchased (Geneocopoeia, Cat. #EX-T6988-M02). Jurkat cells (30 million cells) were transfected with 11 μg of EX-T6988-MO2 and 26 μg of the reporter plasmid in OptiMEM® media using Lipofectamine LTX and Plus™ reagents (Life Technologies, Cat. #15338-100). After 5-6 hrs of incubation at 37° C./5% CO2, the cells were collected, resuspended in phenol-red free RPMI media containing 10% (v/v) delipidated FBS (Hyclone, Cat. #SH30855.03) and dispensed into 96-well clear bottom tissue culture plates (CoStar, Cat. #3603), at 80,000 cells per well. Tested compounds were added to the cells in the same media (final concentration of DMSO was 0.1% (v/v)), and the plates were incubated at 37° C./5% CO2 for 16-18 hrs. Luciferase activity in the conditioned supernatants was determined with NanoGlo® assay reagents (Promega, Cat. #N1130).

[3] = Table 20, read-out: Avg ROR γt/5x IC5

Structure (SMILES) | Ki [1] [nM] | IC50 [2, 3] [nM] | IC50 ([2]; read-out: Avg ROR γt/5x IC50) [nM]
CC[C@@H]1CN(c2ncc(C(F)(F)F)cn2)Cc2cc(C(=O)N[C@H](CO)c3ccc(S(=O)(=O)CC)cn3)ccc21 (single isomer, unassigned) [Hy7-18.2] | < 100 | > 1000 | –
CCOC(=O)c1cnc(N2Cc3cc(C(=O)NCc4ccc(S(=O)(=O)CC)cc4)ccc3[C@@H](C(C)C)C2)nc1C(F)(F)F (single isomer, unassigned) [Hy7-26.2] | < 100 | 100 to 1000 | –
CCC1CN(C2CCC(C(F)(F)F)CC2)Cc2cc(C(=O)NC(CO)c3ccc(S(=O)(=O)CC)cc3)ccc21 (single isomer, unassigned) [Hy7-35.1] | < 100 | < 100 | –
CCS(=O)(=O)c1ccc([C@H](CO)NC(=O)c2ccc3c(OC[C@@H]4CC[C@@H](C(F)(F)F)OC4)nc(C)cc3c2)cc1 (single isomer, unassigned) [Hy1A-18.2] | < 100 | – | < 100
CCS(=O)(=O)c1ccc(CNC(=O)c2ccc3c(c2)CN(Cc2ccc(C#N)cc2)C[C@H]3C(C)C)cc1 (single isomer, unassigned) [Hy7-28.1] | < 100 | 100 to 1000 | –
CCS(=O)(=O)c1ccc([C@H](CO)NC(=O)c2ccc3c(OCC4CCC(F)(F)CC4)nc(C)cc3c2)cc1 [Hy1A-14, (R)-1-((4,4-difluorocyclohexyl)methoxy)-N-(1-(4-(ethylsulfonyl)phenyl)-2-hydroxyethyl)-3-methylisoquinoline-6-carboxamide] | < 100 | – | < 100
CCS(=O)(=O)c1ccc([C@H](CO)NC(=O)c2ccc3c(OCc4ccc(C(F)(F)F)cc4)nccc3c2)cc1 [Hy1A-7, (R)-N-(1-(4-(ethylsulfonyl)phenyl)-2-hydroxyethyl)-1-((4-(trifluoromethyl)benzyl)oxy)isoquinoline-6-carboxamide] | < 100 | – | 100 to 1000
CC[C@H]1CN(c2ncc(C(F)(F)F)cn2)Cc2cc(C(=O)NCc3ccc(S(=O)(=O)CC)cc3)ccc21 (single isomer, unassigned) [Hy7-9.2] | < 100 | > 1000 | –
CCS(=O)(=O)c1ccc([C@H](CO)NC(=O)c2sc3nc(C)nc(OCc4ccc(C(F)(F)F)cc4)c3c2C)cc1 [Hy6-3, (R)-N-(1-(4-(ethylsulfonyl)phenyl)-2-hydroxyethyl)-2,5-dimethyl-4-((4-(trifluoromethyl)benzyl)oxy)thieno[2,3-d]pyrimidine-6-carboxamide] | < 100 | – | < 100
CCS(=O)(=O)c1ccc(CNC(=O)c2ccc3c(c2)CN(Cc2ccc(F)cc2)C[C@@H]3C(C)C)cc1 (single isomer, unassigned) [Hy7-27.2] | < 100 | < 100 | –
CCOc1cnc(N2Cc3cc(C(=O)NCc4ccc(S(=O)(=O)CC)cc4)ccc3[C@H](C(C)C)C2)nc1 (single isomer, unassigned) [Hy7-5.1] | < 100 | 100 to 1000 | –
CCS(=O)(=O)c1ccc([C@H](CO)NC(=O)c2ccc3c(OCC4CC(F)(F)C4)nc(C)cc3c2)cc1 [Hy1A-12, (R)-1-((3,3-difluorocyclobutyl)methoxy)-N-(1-(4-(ethylsulfonyl)phenyl)-2-hydroxyethyl)-3-methylisoquinoline-6-carboxamide] | < 100 | – | > 1000
CCC1CN(c2ncc(C(F)(F)F)cn2)Cc2cc(C(=O)N[C@@H](CO)c3ccc(S(=O)(=O)CC)cc3)ccc21 (single isomer, unassigned) [Hy7-17.1] | < 100 | < 100 | –
CCS(=O)(=O)c1ccc(CNC(=O)c2ccc3c(c2)CN(c2ncc(C(F)(F)F)cn2)C[C@H]3C(C)C)cc1 (single isomer, unassigned) [Hy7-15.1] | < 100 | 100 to 1000 | –
CCS(=O)(=O)c1ccc(CNC(=O)c2ccc3c(c2)CN(Cc2ccc(C#N)cc2)C[C@@H]3C(C)C)cc1 (single isomer, unassigned) [Hy7-28.2] | < 100 | < 100 | –
CC[C@@H]1CN(c2ncc(C(F)(F)F)cc2C)Cc2cc(C(=O)N[C@@H](CO)c3ccc(S(=O)(=O)CC)cc3)ccc21 (single isomer, unassigned) [Hy7-22.1] | < 100 | < 100 | –
CCS(=O)(=O)c1ccc(CNC(=O)c2ccc3c(c2)CN(c2ncc(F)cn2)C[C@H]3C(C)C)cc1 (single isomer, unassigned) [Hy7-1.1] | < 100 | > 1000 | –

More lines, now with the values ahead:

Ki [1] [nM] | IC50 [2, 3] [nM] | IC50 ([2]; read-out: Avg ROR γt/5x IC50) [nM] | Structure (SMILES)
< 100 | – | 100 to 1000 | CCS(=O)(=O)c1ccc([C@@H](CO)NC(=O)c2ccc3c(OC[C@H]4CC[C@H](C(F)(F)F)CC4)nc(C)cc3c2)nc1 (single isomer, unassigned) [Hy1A-22.2]
< 100 | – | < 100 | CCS(=O)(=O)c1ccc([C@H](CO)NC(=O)c2cnc3c(C4CC4)n(C[C@H]4CC[C@H](C(F)(F)F)CC4)nc3c2)cc1 [Hy3B-1, 3-cyclopropyl-N-((R)-1-(4-(ethylsulfonyl)phenyl)-2-hydroxyethyl)-2-(((1r,4R)-4-(trifluoromethyl)cyclohexyl)methyl)-2H-pyrazolo[4,3-b]pyridine-6-carboxamide]
< 100 | – | 100 to 1000 | CCS(=O)(=O)c1ccc(CNC(=O)c2sc3nc(C)nc(OC[C@H]4CC[C@H](C(F)(F)F)CC4)c3c2C)cc1 [Hy6-2, N-(4-(ethylsulfonyl)benzyl)-2,5-dimethyl-4-(((1r,4r)-4-(trifluoromethyl)cyclohexyl)methoxy)thieno[2,3-d]pyrimidine-6-carboxamide]
< 100 | – | < 100 | CCS(=O)(=O)c1ccc(CNC(=O)c2cnc3c(C4CC4)n(C[C@H]4CC[C@H](C(F)(F)F)CC4)nc3c2)cc1 [Hy3B-2, 3-cyclopropyl-N-(4-(ethylsulfonyl)benzyl)-2-(((1r,4r)-4-(trifluoromethyl)cyclohexyl)methyl)-2H-pyrazolo[4,3-b]pyridine-6-carboxamide]
< 100 | – | < 100 | CCS(=O)(=O)c1ccc(CNC(=O)c2ccc3c(OC[C@H]4CC[C@H](C(F)(F)F)CC4)nc(Cl)cc3c2)cc1 [Hy1A-9, 3-chloro-N-(4-(ethylsulfonyl)benzyl)-1-(((1r,4r)-4-(trifluoromethyl)cyclohexyl)methoxy)isoquinoline-6-carboxamide]
< 100 | – | 100 to 1000 | CCS(=O)(=O)c1ccc([C@H](CO)NC(=O)c2ccc3c(OC[C@H]4CC[C@H](C(F)(F)F)CC4)nccc3c2)cc1 [Hy1A-8, N-((R)-1-(4-(ethylsulfonyl)phenyl)-2-hydroxyethyl)-1-(((1r,4R)-4-(trifluoromethyl)cyclohexyl)methoxy)isoquinoline-6-carboxamide]
< 100 | – | < 100 | CCS(=O)(=O)c1ccc([C@H](CO)NC(=O)c2ccc3c(OC[C@H]4CC[C@H](C(F)(F)F)CC4)nc(C)cc3c2)cc1 [Hy1A-10, N-((R)-1-(4-(ethylsulfonyl)phenyl)-2-hydroxyethyl)-3-methyl-1-(((1r,4R)-4-(trifluoromethyl)cyclohexyl)methoxy)isoquinoline-6-carboxamide]
< 100 | – | < 100 | CCC1c2ccc(C(=O)NCc3ccc(S(=O)(=O)CC)cc3)cc2CCN1CC1CCC(C(F)(F)F)CC1 (single isomer, unassigned) [Hy2A-27]
< 100 | – | < 100 | CCS(=O)(=O)c1ccc(CNC(=O)c2ccc3c(C4CC4)n(C[C@H]4CC[C@H](C(F)(F)F)CC4)nc3c2)cc1 [Hy3A-2, 3-cyclopropyl-N-(4-(ethylsulfonyl)benzyl)-2-(((1r,4r)-4-(trifluoromethyl)cyclohexyl)methyl)-2H-indazole-6-carboxamide]
